Assay results from patent US20100292316A1, “IMPROVED THERAPEUTIC METHODS AND COMPOSITIONS COMPRISING CHROMAN RING COMPOUNDS” (Research Development Foundation, priority 2007, published 2010).

Test system: MDA-MB-435 human breast cancer cells
Assay: DNA microarray gene expression after α-TEA treatment
Type: cell-based
Parameters: scale not given here
Conditions: MDA-MB-435, 40 μM, 12 h
Method: In order to identify genes that are involved in α-TEA induced apoptosis in cancer cells the gene expression levels in MDA-MB-435 human breast cancer cells were analyzed after treatment with α-TEA. The MDA-MB-435 cell line is an estrogen-receptor negative/estrogen-nonresponsive epithelial cell line isolated from the pleural effusions of a human with breast cancer (Price et al., 1990). DNA microarray data obtained from treatment of MDA-MB-435 cells with 40 μM α-TEA for 12 h identified approximately 400 genes that gave consistent responses to α-TEA treatment. Genes that passed a minimum quality control threshold were analyzed using online software (The Database for Annotation, Visualization and Integrated Discovery (DAVID)).
MDA-MB-435 cells were cultured in MEM with Earle's balanced salts (Life Technologies, Inc., Grand Island, N.Y.) supplemented with 5% FBS (Hyclone Laboratories, Logan, Utah) plus 2 mM glutamine, 100 μg/ml streptomycin, 100 IU/ml penicillin, 1×(v/v) nonessential amino acids, 2×(v/v) MEM vitamins, and 1 mM sodium pyruvate (Sigma).
Messenger RNA was isolated from the treated MDA-MB-435 cells (3×150 mm dishes) using the FastTrack 2.0 kit (Invitrogen) according to the manufacturer's instructions. First, 15 ml of lysis buffer was added into the cell pellets and mixed thoroughly. The cell lysates were incubated in 45° C. for 45 min with intermittent inversion. Then, 950 μl of 5 M NaCl stock solution was added and mixed thoroughly. Any remaining DNA was sheared by passing the lysates 3 times through a sterile plastic syringe fitted with a 21 gauge needle. Next, the calculated amount of oligo-dT cellulose was added to each sample and allowed to swell for 2 minutes. The tube was rocked gently in a horizontal position for 60-90 minutes at room temperature. The oligo-dT slurry was centrifuged at 4000 rpm for 5 minutes at room temperature, the supernatant was carefully removed from the resin bed. The oligo-dT cellulose was then resuspended in 20 ml of Binding Buffer by vortexing and centrifuged at 4000 rpm for 5 minutes at room temperature, the binding buffer was removed from the resin bed; this step was repeated with 10 ml of binding buffer. The oligo-dT cellulose was washed three times in 10 ml of Low Salt Wash Buffer and centrifuged. The resulting oligo-dT cellulose was resuspended in 800 μl of Low Salt Wash Buffer using a 1 ml pipette tip with a cut-end and quickly transferred to a spin column seated in a microcentrifuge tube. The column was centrifuged at 1000 rcf (about 3000 rpm on a typical microcentrifuge) for 10 seconds at room temperature and the flow-through liquid was discarded. The transfer and centrifugation steps were repeated until all of the oligo-dT cellulose was in the spin column. Then, the spin column containing the oligo-dT cellulose was placed into a clean microcentrifuge tube. The oligo-dT cellulose was resuspended in 200 μl of preheated Elution Buffer (65° C.) using a 200 μl cut-end pipette tip to gently swirl the cellulose, without puncturing the underlying spin column membrane. The column was allowed to stand for 2 minutes at room temperature and then centrifuged at 1000 rcf for 30 seconds at room temperature. This step was repeated with 200 μl of heated Elution Buffer. Then, 40 μl of 3 M sodium acetate and 1 ml of 95% ethanol were added into the combined 400 μl eluent which contained the mRNA and mixed thoroughly. The mRNA mixture was stored at −80° C. overnight. Thenext day, the mixture was thawed and centrifuged at 14,000 rpm in a microcentrifuge for 15 minutes at 4° C., the ethanol was then carefully removed from the mRNA pellet. The mRNA was washed with 70% ethanol once more and resuspended in 20 μl of Elution Buffer (heated as before). […]

## Cc1c(C)c2c(c(C)c1OCC(=O)O)CC[C@@](C)(CCC[C@H](C)CCC[C@H](C)CCCC(C)C)O2 [α-TEA]
Clone IMAGE: 5311129, mRNA, AI362218
  Average level: −0.8568
EST, AI201652
  Average level: −0.7242
Homo sapiens transcribed sequence with strong similarity to protein pdb: 1BGM, AA779865
  Average level: −0.735
Homo sapiens transcribed sequences, R55747
  Average level: −0.756
MRNA full length insert cDNA clone EUROIMAGE 200999, N54993
  Average level: −0.698
Transcribed sequences, H99855
  Average level: −0.8377
Gene AGPAT3, R61733
  Average level: −0.743
Gene AGTRAP, AA152101
  Average level: −0.574
Gene AKR1C2, AI924357
  Average level: −0.865
Gene AMD1, R82299
  Average level: −0.758
Gene ATOX1, AA418755
  Average level: −0.898
Gene ATP5G1, AA046701
  Average level: −0.6558
Gene BAT3, AA598629
  Average level: −0.5502
Gene BST2, AA485371
  Average level: −0.5935
Gene C7orf38, AA452899
  Average level: −0.6558
Gene C9orf58, H48148
  Average level: −0.5662
Gene C13orf8, AA463267
  Average level: −0.6892
Gene C14orf24, AA035549
  Average level: −0.6602
Gene C16orf34, AA045658
  Average level: −0.7252
Gene CDCA2, AI248208
  Average level: −0.719
Gene CHD9, R81880
  Average level: −0.6642
Gene CLCN3, H69811
  Average level: −0.6208
Gene COX7B, AA629999
  Average level: −0.8798
Gene CRABP1, AA421218
  Average level: −0.7923
Gene CRTAP, AA490280
  Average level: −0.7943
Gene CTNNB1, AW058504
  Average level: −0.59
Gene CUGBP2, AA047257
  Average level: −0.8218
Gene CXXC5, R63735
  Average level: −0.8002
Gene D4ST1, AA922082
  Average level: −0.6567
Gene DAG1, AA496691
  Average level: −0.8377
Gene DCT, N27147
  Average level: −0.8518
Gene DEPDC6, AA621364
  Average level: −0.93
Gene DHCR24, AA482324
  Average level: −0.8912
Gene DPY19L2, AA134696
  Average level: −0.7558
Gene EPHB2, W72792
  Average level: −0.6663
Gene ERBB3, AA664212
  Average level: −0.864
Gene ETFB, AI364521
  Average level: −0.6326
Gene FAM83D, R96941
  Average level: −0.5566
Gene FBXL13, AA676859
  Average level: −0.8802
Gene FLJ12973, AI220472
  Average level: −0.7147
Gene FLJ21901, AI392678
  Average level: −0.8782
Gene FZD4, AA677200
  Average level: −0.765
Gene GFER, AA465021
  Average level: −0.5873
Gene GGH, AA455800
  Average level: −0.8048
Gene GNG2, N26108
  Average level: −0.9006
Gene HBS1L, AI003293
  Average level: −0.6832
Gene HNRPM, AA504272
  Average level: −0.6512
Gene HSBP1, AA481263
  Average level: −0.735
Gene IFT122, R97234
  Average level: −0.585
Gene ITGB8, AI246160
  Average level: −0.7288
Gene KIAA0664, AI363909
  Average level: −0.8538
Gene LGALS13, AA706870
  Average level: −0.8452
Gene LOC151162, H79970
  Average level: −0.6815
Gene LOC286334, AA425105
  Average level: −0.8562
Gene LRRK2, AA283609
  Average level: −0.8566
Gene LTBP3, R60197
  Average level: −0.6094
Gene MAF1, AA598994
  Average level: −0.8305
Gene MAN1A2, R22905
  Average level: −0.8387
Gene MGA, AA011551
  Average level: −0.74
Gene MGC4692, AA455039
  Average level: −0.7943
Gene MLANA, N26562
  Average level: −0.551
Gene MVK, R06716
  Average level: −0.673
Gene MYEF2, H96671
  Average level: −0.6864
Gene MYO5A, H20809
  Average level: −0.6754
Gene NETO2, AA456821
  Average level: −0.6854
Gene NOV, AW008840
  Average level: −0.7034
Gene NQO1, AA455538
  Average level: −0.8166
Gene NUPL1, AA158352
  Average level: −0.8132
Gene NUPL2, R96358
  Average level: −0.7312
Gene NUSAP1, AA620485
  Average level: −0.617
Gene OVOS2, AA600184
  Average level: −0.9275
Gene PCDHB16, AI218958
  Average level: −0.7648
Gene PFKFB2, R16146
  Average level: −0.6214
Gene PLEKHF2, AA886792
  Average level: −0.8846
Gene SCD, R00707
  Average level: −0.8732
Gene SFRS2, AA454585
  Average level: −0.7076
Gene SGCD, AA479286
  Average level: −0.8855
Gene SLC26A2, AA704222
  Average level: −0.9114
Gene SLC44A1, R59173
  Average level: −0.6684
Gene SLC44A1, T61913
  Average level: −0.6626
Gene SNX12, AA629796
  Average level: −0.611
Gene SOS1, H64324
  Average level: −0.6138
Gene STARD7, R37351
  Average level: −0.7862
Gene TBC1D1, R32437
  Average level: −0.8948
Gene TBC1D16, AI431804
  Average level: −0.9208
Gene TMPO, H21943
  Average level: −0.7848
Gene TMPO, T63980
  Average level: −0.7846
Gene TNFRSF21, AA490494
  Average level: −0.8622
Gene TNS3, T74023
  Average level: −0.8212
Gene TOP2A, AA504348
  Average level: −0.7142
Gene TREX1, AA279658
  Average level: −0.861
Gene TRIM2, AA464935
  Average level: −0.922
Gene TSHZ1, AA426522
  Average level: −0.865
Gene TWSG1, N91767
  Average level: −0.6
Gene USP40, H29211
  Average level: −0.8932
Gene VAV3, H10045
  Average level: −0.9075
Gene VPRBP, AA644335
  Average level: −0.702
Gene VPS13D, AI005042
  Average level: −0.7177
Gene WASPIP, AA283699
  Average level: −0.8604
Gene ZNF291, AA001504
  Average level: −0.6362
